From PubChem BioAssay AID2060609 (Molecular Pharmacology Branch, DTP, NCI, 2025)

Tested on: 855422-203-R-J1-PDC complex spheroids, viability
Assay: Anticancer human tumor 855422-203-R-J1-PDC patient-derived bladder carcinoma cell line growth inhibition [CLK]
Conditions: for IC50: curve of first compound; for viability, T/C: stronger effect = lower value; active means viability on the fitted dose curve at most 10% of control; inactive means the rest
In short: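 Patient-derived tumor cells grown as complex spheroids with HUVEC endothelial cells and mesenchymal stem cells, treated with drug combinations. Concentrations descend in half-log steps from near clinical Cmax, or from 10 microM if Cmax unknown.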

[1] = second compound 0.0316 µM, first compound 0.0316 µM
[2] = second compound 0.0316 µM, first compound 0.1 µM
[3] = second compound 0.0316 µM, first compound 0.316 µM
[4] = second compound 0.0316 µM, first compound 1 µM
[5] = second compound 0.0316 µM, first compound 3.16 µM
[6] = second compound 0.0316 µM, first compound 10 µM
[7] = second compound 0.1 µM, first compound 0.0316 µM
[8] = second compound 0.1 µM, first compound 0.1 µM
[9] = second compound 0.1 µM, first compound 0.316 µM
[10] = second compound 0.1 µM, first compound 1 µM
[11] = second compound 0.1 µM, first compound 3.16 µM
[12] = second compound 0.1 µM, first compound 10 µM
[13] = second compound 0.316 µM, first compound 0.0316 µM
[14] = second compound 0.316 µM, first compound 0.1 µM
[15] = second compound 0.316 µM, first compound 0.316 µM
[16] = second compound 0.316 µM, first compound 1 µM
[17] = second compound 0.316 µM, first compound 3.16 µM
[18] = second compound 0.316 µM, first compound 10 µM
[19] = second compound 1 µM, first compound 0.0316 µM
[20] = second compound 1 µM, first compound 0.1 µM
[21] = second compound 1 µM, first compound 0.316 µM
[22] = second compound 1 µM, first compound 1 µM
[23] = second compound 1 µM, first compound 3.16 µM
[24] = second compound 1 µM, first compound 10 µM
[25] = second compound 3.16 µM, first compound 0.0316 µM
[26] = second compound 3.16 µM, first compound 0.1 µM
[27] = second compound 3.16 µM, first compound 0.316 µM
[28] = second compound 3.16 µM, first compound 1 µM
[29] = second compound 3.16 µM, first compound 3.16 µM
[30] = second compound 3.16 µM, first compound 10 µM
[31] = second compound 10 µM, first compound 0.0316 µM
[32] = second compound 10 µM, first compound 0.1 µM
[33] = second compound 10 µM, first compound 0.316 µM
[34] = second compound 10 µM, first compound 1 µM
[35] = second compound 10 µM, first compound 3.16 µM
[36] = second compound 10 µM, first compound 10 µM
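Further: spheroids exposed to drugs for seven days before readout.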
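Wherever viability, T/C is given: 100% = DMSO vehicle control wells.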

COc1ccc([C@@H](O)c2cc(-c3ncnc4cc(N5CCOCC5)ccc34)c(F)cc2Cl)nn1 + CN1CCN(c2cc(C(=O)Nc3cc4cc(-c5cnn(C)c5)ccc4cn3)ccn2)CC1
5.35 µM: IC50 (second compound 0.0316 µM)
< 0.0316 µM: IC50 (second compound 0.316 µM) | IC50 (second compound 1 µM) | IC50 (second compound 3.16 µM) | IC50 (second compound 10 µM)
active: viability, T/C [13] 6.51% | viability, T/C [14] 8.74% | viability, T/C [15] 5.23% | viability, T/C [16] 4.62% | viability, T/C [17] 5.93% | viability, T/C [18] 5.44% | viability, T/C [19] 0.14% | viability, T/C [20] 0.19% | viability, T/C [21] 0.74% | viability, T/C [22] 0.11% | viability, T/C [23] 2.55% | viability, T/C [24] 0.09% | viability, T/C [25] 1.7% | viability, T/C [26] 0.33% | viability, T/C [27] 1.52% | viability, T/C [28] 0.2% | viability, T/C [29] 0.33% | viability, T/C [30] 0.13% | viability, T/C [31] 0.6% | viability, T/C [32] 0.27% | viability, T/C [33] 0.24% | viability, T/C [34] 0.24% | viability, T/C [35] 0.26% | viability, T/C [36] 0.19%
5.05 µM: IC50 (second compound 0.1 µM)
inactive: viability, T/C [1] 104% | viability, T/C [2] 118% | viability, T/C [3] 91.3% | viability, T/C [4] 94% | viability, T/C [5] 66% | viability, T/C [6] 29.9% | viability, T/C [7] 84.7% | viability, T/C [8] 96.1% | viability, T/C [9] 89.2% | viability, T/C [10] 86% | viability, T/C [11] 64.6% | viability, T/C [12] 28.7%

COc1cccc2c1C(=O)c1c(O)c3c(c(O)c1C2=O)CC(O)(C(=O)CO)CC3OC1CC(N)C(O)C(C)O1 (stereo not drawn) + CN1CCN(c2cc(C(=O)Nc3cc4cc(-c5cnn(C)c5)ccc4cn3)ccn2)CC1
< 0.0316 µM: IC50 (second compound 0.0316 µM) | IC50 (second compound 0.1 µM) | IC50 (second compound 0.316 µM) | IC50 (second compound 1 µM) | IC50 (second compound 3.16 µM) | IC50 (second compound 10 µM)
active: viability, T/C [1] 8.97% | viability, T/C [2] 3.16% | viability, T/C [3] 0.95% | viability, T/C [4] 0.46% | viability, T/C [5] 0.59% | viability, T/C [6] 1.01% | viability, T/C [7] 8.75% | viability, T/C [8] 1.14% | viability, T/C [9] 0.71% | viability, T/C [10] 1.31% | viability, T/C [11] 0.35% | viability, T/C [12] 0.34% | viability, T/C [13] 1.19% | viability, T/C [14] 1.5% | viability, T/C [15] 0.36% | viability, T/C [16] 0.28% | viability, T/C [17] 0.35% | viability, T/C [18] 0.27% | viability, T/C [19] 0.21% | viability, T/C [20] 0.29% | viability, T/C [21] 0.23% | viability, T/C [22] 0.31% | viability, T/C [23] 0.39% | viability, T/C [24] 0.81% | viability, T/C [25] 0.29% | viability, T/C [26] 0.57% | viability, T/C [27] 0.22% | viability, T/C [28] 0.22% | viability, T/C [29] 0.42% | viability, T/C [30] 0.22% | viability, T/C [31] 0.09% | viability, T/C [32] 0.17% | viability, T/C [33] 1.68% | viability, T/C [34] 0.13% | viability, T/C [35] 0.76% | viability, T/C [36] 1.02%

CCCS(=O)(=O)Nc1ccc(F)c(C(=O)c2c[nH]c3ncc(-c4ccc(Cl)cc4)cc23)c1F + CNC(=O)c1ccc(Nc2nc(OC3CCCC3)c3c(-c4ccc5nc(C)oc5c4)c[nH]c3n2)c(OC)c1
active: viability, T/C [6] 3.65% | viability, T/C [12] 6.89%
< 0.0316 µM: IC50 (second compound 0.316 µM) | IC50 (second compound 1 µM) | IC50 (second compound 3.16 µM) | IC50 (second compound 10 µM)
inactive: viability, T/C [1] 90.8% | viability, T/C [2] 79.9% | viability, T/C [3] 112% | viability, T/C [4] 92.2% | viability, T/C [5] 114% | viability, T/C [7] 50.6% | viability, T/C [8] 52.7% | viability, T/C [9] 48.5% | viability, T/C [10] 49.6% | viability, T/C [11] 46% | viability, T/C [13] 23.8% | viability, T/C [14] 23.8% | viability, T/C [15] 19.8% | viability, T/C [16] 19.9% | viability, T/C [17] 21.4% | viability, T/C [18] 5.35% | viability, T/C [19] 17.7% | viability, T/C [20] 20.9% | viability, T/C [21] 17.9% | viability, T/C [22] 20.2% | viability, T/C [23] 16.9% | viability, T/C [24] 4.43% | viability, T/C [25] 22.2% | viability, T/C [26] 14.9% | viability, T/C [27] 18.7% | viability, T/C [28] 15.1% | viability, T/C [29] 19.5% | viability, T/C [30] 4.41% | viability, T/C [31] 18.2% | viability, T/C [32] 19.6% | viability, T/C [33] 20% | viability, T/C [34] 17.6% | viability, T/C [35] 15.1% | viability, T/C [36] 5.26%
5.68 µM: IC50 (second compound 0.0316 µM)
1.03 µM: IC50 (second compound 0.1 µM)

COC1C=CCC(C)C(C)S(=O)(=O)NC(=O)c2ccc3c(c2)N(CC2CCC21)CC1(CCCc2cc(Cl)ccc21)CO3 (stereo not drawn) + CNC(=O)c1ccc(Nc2nc(OC3CCCC3)c3c(-c4ccc5nc(C)oc5c4)c[nH]c3n2)c(OC)c1
< 0.0316 µM: IC50 (second compound 0.316 µM) | IC50 (second compound 1 µM) | IC50 (second compound 3.16 µM) | IC50 (second compound 10 µM)
7.39 µM: IC50 (second compound 0.0316 µM)
inactive: viability, T/C [1] 96% | viability, T/C [2] 105% | viability, T/C [3] 122% | viability, T/C [4] 132% | viability, T/C [5] 151% | viability, T/C [6] 24.7% | viability, T/C [7] 53.6% | viability, T/C [8] 63.6% | viability, T/C [9] 54.1% | viability, T/C [10] 77.3% | viability, T/C [11] 105% | viability, T/C [12] 33.3% | viability, T/C [13] 20% | viability, T/C [14] 23.7% | viability, T/C [15] 20.7% | viability, T/C [16] 17.2% | viability, T/C [17] 34.1% | viability, T/C [18] 22% | viability, T/C [19] 19.8% | viability, T/C [20] 17.3% | viability, T/C [21] 18.2% | viability, T/C [22] 19.5% | viability, T/C [23] 21.9% | viability, T/C [24] 29% | viability, T/C [25] 15.8% | viability, T/C [26] 18.1% | viability, T/C [27] 16.4% | viability, T/C [28] 15.1% | viability, T/C [29] 20.8% | viability, T/C [30] 23.3% | viability, T/C [31] 17.7% | viability, T/C [32] 18.6% | viability, T/C [33] 17.9% | viability, T/C [34] 17.4% | viability, T/C [35] 17.9% | viability, T/C [36] 23.3%
> 10 µM: IC50 (second compound 0.1 µM)
